Our source for the EC50 values is patent US8563714B2, “Bridged spiro [2.4] heptane derivatives as ALX receptor and/or FPRL2 agonists” (Actelion Pharmaceuticals Ltd., priority 2009, dated 2013).

pEC50: −log10 of the molar value. A value given as a limit tells only on which side of the number the result lay.

Assay [1] deals with T1, human ALX receptor (Homo sapiens, UniProt P25090).
T1 construct: expressed in transfected cells; host or cells: HEK293 (HEK293-hALXR-Gα16)
T1 sequence (P25090 1-351): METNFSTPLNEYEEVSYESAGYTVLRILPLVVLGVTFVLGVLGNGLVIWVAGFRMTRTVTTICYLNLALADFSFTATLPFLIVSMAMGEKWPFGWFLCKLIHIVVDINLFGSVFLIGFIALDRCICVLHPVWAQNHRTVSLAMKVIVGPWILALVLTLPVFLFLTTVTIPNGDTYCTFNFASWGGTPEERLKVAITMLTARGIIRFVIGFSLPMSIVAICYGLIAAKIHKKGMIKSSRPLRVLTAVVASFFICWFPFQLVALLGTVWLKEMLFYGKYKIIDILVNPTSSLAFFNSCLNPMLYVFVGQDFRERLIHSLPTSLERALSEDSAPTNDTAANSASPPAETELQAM
Put plainly: Intracellular calcium measurements (FLIPR), agonistic activity in HEK293-hALXR-Gα16 cells. Format: cell-based. The conditions noted are these: Fluo-4 calcium FLIPR, normalized to WKYMVm 10 nM. The procedure, abridged:
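HEK293 cells expressing hALXR and Gα16 were loaded with 1 μM Fluo-4 AM and 20 mM HEPES for 60 min at 37°C, then exposed to serially diluted compound. FLIPR fluorescence was read at ex 488/em 540 nm. Baseline-subtracted peak responses were normalized to 10 nM WKYMVm.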
Background: Calcium flux is commonly read through the fluorescence of an indicator in the cells.

The target in assay [2] is T2, human FPRL2 (Homo sapiens, UniProt P25089).
T2 construct: expressed in transfected cells; host or cells: HEK293 (HEK293-hFPRL2-Gα16)
T2 sequence (P25089 1-353): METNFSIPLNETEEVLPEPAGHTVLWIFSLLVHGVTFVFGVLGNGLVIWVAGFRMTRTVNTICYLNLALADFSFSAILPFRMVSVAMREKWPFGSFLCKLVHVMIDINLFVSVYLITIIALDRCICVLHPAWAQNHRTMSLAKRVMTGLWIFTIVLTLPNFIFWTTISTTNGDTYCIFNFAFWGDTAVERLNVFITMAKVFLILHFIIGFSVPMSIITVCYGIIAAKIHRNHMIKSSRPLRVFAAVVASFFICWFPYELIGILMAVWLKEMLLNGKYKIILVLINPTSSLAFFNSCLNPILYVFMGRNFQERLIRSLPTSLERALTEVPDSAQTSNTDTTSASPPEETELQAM
The assay can be described thus: Intracellular calcium measurements (FLIPR), agonistic activity in HEK293-hFPRL2-Gα16 cells. The class given is cell-based. The conditions noted are these: Fluo-4 calcium FLIPR, normalized to GLY14-Humanin 100 nM. A digest of the protocol:
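Peak values after baseline subtraction are expressed relative to 100 nM Gly14-Humanin; compounds diluted in assay buffer from 10 mM DMSO stocks.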

Turning to `CC(=O)c1csc(CNC(=O)[C@H]2[C@H](C(=O)NCCCc3nc4ccccc4[nH]3)[C@H]3C=C[C@@H]2C32CC2)n1` (racemic) [Example 247, (5R*)—N^5-(4-Acetyl-thiazol-2-yl-methyl)-(6R*)—N^6-(3-(1H-benzoimidazol-2-yl)-propyl)-(4S*,7R*)-[4,7-ethenylene-spiro[2.4]heptane]-5,6-dicarboxamide], the pEC50 (in general, the EC50 on a negative log10 scale, so that one unit is a factor of ten) in assay [1] was 6.97; in assay [2], 5.97.

Consider `COc1ccc(NC(=O)[C@H]2[C@H](C(=O)NCCC(N)=O)[C@H]3CC[C@@H]2C32CC2)cc1` [Example 293, (5R)—N^5-(4-Methoxyphenyl)-(6R)—N^6-(3-amino-3-oxopropyl)-(4S,7R)-[4,7-ethylene-spiro[2.4]heptane]-5,6-dicarboxamide], for which the results for the pEC50 in assay [1] and in assay [2] were 7.23 and 5.63, respectively.

In the case of `COc1cc(CNC(=O)[C@H]2[C@H](C(=O)NCCCCN3CCCC3)[C@H]3C=C[C@@H]2C32CC2)ccn1` (racemic) [Example 361, (5R*)—N^5-[(2-Methoxypyridin-4-yl)methyl]-(6R*)—N^6-(4-pyrrolidino-butyl)-(4S*,7R*)-[4,7-ethenylene-spiro[2.4]heptane]-5,6-dicarboxamide], the pEC50 was 5.05 in assay [1] and 6.48 in assay [2].

As to `CN(C)C(=O)CCC(=O)NC[C@H]1[C@H](C(=O)Nc2ccc(Br)cc2)[C@@H]2C=C[C@H]1C21CC1` (racemic) [Example 164, (5R*)—N^5-(4-Bromo-phenyl)-(6R*)-6-[(3-(N,N-dimethyl-aminocarbonyl)-propionyl-amino)-methyl]-(4S*,7R*)-[4,7-ethenylene-spiro[2.4]heptane]-5-carboxamide], the negative-log EC50 (pEC50) was 7.10 in assay [1] and 5.17 in assay [2].

For the compound `O=C(NCCCCN1CC[C@H](F)C1)[C@H]1[C@H](C(=O)Nc2ccc(Br)cc2)[C@@H]2C=C[C@H]1C21CC1` [Example 220, (5R)—N^5-(4-Bromophenyl)-(6R)—N^6-(4-((3S)-fluoropyrrolidino)butyl)-(4S,7R)-[4,7-ethenylene-spiro[2.4]heptane]-5,6-dicarboxamide], the pEC50 in assay [1] is 9.46; in assay [2] it was 6.63.

`CC(C)(C)OC(=O)NCCNC(=O)C1C(C(=O)Nc2ccc(Br)cc2)C2C=CC1C21CC1` (stereo not drawn) [Example 27, (5R*)—N^5-(4-Bromophenyl)-(6R*)—N^6-(2-tert-butoxycarbonyl-amino-ethyl)-(4S*,7R*)-[4,7-ethenylene-spiro[2.4]heptane]-5,6-dicarboxamide]: the pEC50 in assay [1] is 8.38; in assay [2], 5.71.

For the compound `CN1CCCC1CCNC(=O)C1C(C(=O)Nc2ccc(Br)cc2)C2C=CC1C21CC1` (mixture of isomers) [Example 33, (5R*)—N^5-(4-Bromophenyl)-(6R*)—N^6-(2-(1-methyl-pyrrolidin-2-yl)-ethyl)-(4S*,7R*)-[4,7-ethenylene-spiro[2.4]heptane]-5,6-dicarboxamide], the negative logarithm of the EC50 (pEC50) was 8.24 in assay [1] and 5.39 in assay [2].

As for `CC(=O)c1csc(CNC(=O)[C@H]2[C@H](C(=O)NCCC(N)=O)[C@H]3C=C[C@@H]2C32CC2)n1` (racemic) [Example 261, (5R*)—N^5-(4-Acetyl-thiazol-2-yl-methyl)-(6R*)—N^6-(3-amino-3-oxopropyl)-(4S*,7R*)-[4,7-ethenylene-spiro[2.4]heptane]-5,6-dicarboxamide], the pEC50 in assay [1] is 6.53; in assay [2], below 4.60.

For `CNCCNC(=O)[C@H]1[C@H](C(=O)Nc2ncc(Br)s2)[C@@H]2CC[C@H]1C21CC1` [Example 413, (5R)—N^5-(5-Bromothiazol-2-yl)-(6R)—N^6-(2-(N-methylamino)-ethyl)-(4S,7R)-[4,7-ethylene-spiro[2.4]heptane]-5,6-dicarboxamide], the pEC50 in assay [1] is 7.89; in assay [2], 5.68.

For `NC(=O)C1CCCCC1NC(=O)C1C(C(=O)Nc2ccc(Br)cc2)C2C=CC1C21CC1` (mixture of isomers) [Example 81, (5R*)—N^5-(4-Bromophenyl)-(6R*)—N^6-(2-carbamoyl-cyclohexyl)-(4S*,7R*)-[4,7-ethenylene-spiro[2.4]heptane]-5,6-dicarboxamide], the values for the pEC50 in assay [1] and in assay [2] were 7.00 and 5.06, respectively.

For `O=C(NCC(c1ccccc1)N1CCOCC1)C1C(C(=O)Nc2ccc(Br)cc2)C2C=CC1C21CC1` (mixture of isomers) [Example 77, (5R*)—N^5-(4-Bromophenyl)-(6R*)—N^6-(2-phenyl-2-morpholino-ethyl)-(4S*,7R*)-[4,7-ethenylene-spiro[2.4]heptane]-5,6-dicarboxamide], the negative logarithm of the EC50 (pEC50) was 7.10 in assay [1] and 5.64 in assay [2].

In the case of `CC(=O)c1ccc(NC(=O)[C@H]2[C@H](C(=O)NCCCCN3CCCC3)[C@H]3C=C[C@@H]2C32CC2)cc1` (racemic) [Example 192, (5R*)—N^5-(4-Acetyl-phenyl)-(6R*)—N^6-(4-pyrrolidin-1-yl-butyl)-(4S*,7R*)-[4,7-ethenylene-spiro[2.4]heptane]-5,6-dicarboxamide], the pEC50 in assay [1] is 7.64; in assay [2], 6.86.

For the compound `CC(=O)c1csc(CNC(=O)[C@H]2[C@H](C(=O)NCC(C)C)[C@H]3C=C[C@@H]2C32CC2)n1` (racemic) [Example 244, (5R*)—N^5-(4-Acetyl-thiazol-2-yl-methyl)-(6R*)—N^6-(isobutyl)-(4S*,7R*)-[4,7-ethenylene-spiro[2.4]heptane]-5,6-dicarboxamide], the values for the pEC50 in assay [1] and in assay [2] were 6.43 and below 4.60, respectively.

Consider `NCCCNC(=O)[C@H]1[C@H](C(=O)NCc2ccc(Br)cc2)[C@@H]2C=C[C@H]1C21CC1` (racemic) [Example 307, (5R*)—N^5-(4-Bromophenyl-methyl)-(6R*)—N^6-(3-amino-propyl)-(4S*,7R*)-[4,7-ethenylene-spiro[2.4]heptane]-5,6-dicarboxamide], for which the pEC50 is 7.12 in assay [1] and 5.58 in assay [2].

Consider `O=C(NCCCCN1CCCC1)[C@H]1[C@H](C(=O)NCCc2ccc(Br)cc2)[C@@H]2C=C[C@H]1C21CC1` (racemic) [Example 379, (5R*)—N^5-(2-(4-Bromophenyl)ethyl)-(6R*)—N^6-(4-pyrrolidino-butyl)-(4S*,7R*)-[4,7-ethenylene-spiro[2.4]heptane]-5,6-dicarboxamide], for which the pEC50 in assay [1] is 5.06; in assay [2], 8.18.

As to `O=C(NCCCCN1CCCC1)[C@H]1[C@H](C(=O)NCCc2ccc(Cl)cc2Cl)[C@@H]2C=C[C@H]1C21CC1` [Example 391, (5R)—N^5-(2-(2,4-Dichlorophenyl)ethyl)-(6R)—N^6-(4-pyrrolidino-butyl)-(4S,7R)-[4,7-ethenylene-spiro[2.4]heptane]-5,6-dicarboxamide], the negative logarithm of the EC50 (pEC50) in assay [1] was 5.01; in assay [2], 8.42.

On to `CNCCNC(=O)[C@H]1[C@H](C(=O)NCc2nc(C(C)=O)cs2)[C@@H]2C=C[C@H]1C21CC1` (racemic) [Example 396, (5R*)—N^5-[(4-Acetyl-thiazol-2-yl)methyl]-(6R*)—N^6-(2-methylamino-ethyl)-(4S*,7R*)-[4,7-ethenylene-spiro[2.4]heptane]-5,6-dicarboxamide], for which the pEC50 in assay [1] is 5.98; in assay [2], 6.06.

Regarding `NC(=O)CCNC(=O)[C@H]1[C@H](C(=O)NCc2ccc(Br)cc2)[C@@H]2C=C[C@H]1C21CC1` [Example 241, (5R)—N^5-(4-Bromo-phenyl-methyl)-(6R)—N^6-(3-amino-3-oxopropyl)-(4S,7R)-[4,7-ethenylene-spiro[2.4]heptane]-5,6-dicarboxamide], the pEC50 was 6.62 in assay [1] and below 4.60 in assay [2].

On to `CN(C)CCNC(=O)[C@H]1[C@H](C(=O)Nc2ccc(Br)cc2)[C@@H]2C=C[C@H]1C21CC1` [Example 6, (5R)—N^5-(4-Bromophenyl)-(6R)—N^6-(2-N,N-dimethyl-amino-ethyl)-(4S,7R)-[4,7-ethenylene-spiro[2.4]heptane]-5,6-dicarboxamide], for which the pEC50 in assay [1] was 9.39; in assay [2], 5.90.

As for `Cc1nonc1CNC(=O)[C@H]1[C@H](C(=O)NCCCCN2CCCC2)[C@H]2C=C[C@@H]1C21CC1` (racemic) [Example 356, (5R*)—N^5-[(4-Methyl-1,2,5-oxadiazol-3-yl)methyl]-(6R*)—N^6-(4-pyrrolidino-butyl)-(4S*,7R*)-[4,7-ethenylene-spiro[2.4]heptane]-5,6-dicarboxamide], the pEC50 in assay [1] was 5.11; in assay [2] it was 6.02.
